What was measured:
ECHCG [1] = test: Pre-emergence herbicidal action; type: in vivo, Echinochloa crus-galli; conditions: 320 g/ha, scored visually after about 3 weeks vs untreated controls
Description: (§1) 1. Pre-Emergence Herbicidal Action and Crop Plant Compatibility
(§2) Seeds of monocotyledonous and dicotyledonous weed plants and crop plants are placed in plastic or organic planting pots and covered with soil. The compounds of the invention, formulated in the form of wettable powders (WP) or as emulsion concentrates (EC), are then applied onto the surface of the covering soil as aqueous suspension or emulsion with addition of 0.5% additive at a water application rate of 600 l/ha (converted). After the treatment, the pots are placed in a greenhouse and kept under good growth conditions for the trial plants. After about 3 weeks, the effect of the preparations is scored visually in comparison with untreated controls as percentages. The tables below show the herbicidal activity of numerous compounds according to the invention against important harmful plants. For example, 100% activity=the plants have died, 0% activity=like control plants.

STEME [2] = test: Post-emergence herbicidal action; type: in vivo, Stellaria media; conditions: 80 g/ha, rated visually after about 3 weeks vs untreated controls
Protocol: (§3) 2. Post-Emergence Herbicidal Action and Crop Plant Compatibility
(§4) Seeds of monocotyledonous and dicotyledonous weeds and crop plants are placed in sandy loam in plastic or organic planting pots, covered with soil and cultivated in a greenhouse under controlled growth conditions. 2 to 3 weeks after sowing, the test plants are treated at the one-leaf stage. The compounds of the invention, formulated in the form of wettable powders (WP) or as emulsion concentrates (EC), are then sprayed onto the green parts of the plants as aqueous suspension or emulsion with addition of 0.5% additive at a water application rate of […] (converted). After the test plants had been kept in the greenhouse under optimum growth conditions for about 3 weeks, the activity of the preparations is rated visually in comparison to untreated controls. The tables below show the herbicidal activity of numerous compounds according to the invention against important harmful plants. For example, 100% activity=the plants have died, 0% activity=like control plants.

ECHCG [3] = test: Post-emergence herbicidal action; type: in vivo, Echinochloa crus-galli; conditions: 80 g/ha, rated visually after about 3 weeks vs untreated controls
Protocol: as §3, §4

VIOTR [4] = test: Pre-emergence herbicidal action; type: in vivo, Viola tricolor; conditions: 320 g/ha, scored visually after about 3 weeks vs untreated controls
Description: as §1, §2

ABUTH [5] = test: Post-emergence herbicidal action; type: in vivo, Abutilon theophrasti; conditions: 80 g/ha; for herbicidal activity ABUTH: post-emergence, rated visually after about 3 weeks vs untreated controls
Protocol: as §3, §4

AMARE [6] = test: Post-emergence herbicidal action; type: in vivo, Amaranthus retroflexus; conditions: 80 g/ha, rated visually after about 3 weeks vs untreated controls
Protocol: as §3, §4

SETVI [7] = test: Pre-emergence herbicidal action; type: in vivo, Setaria viridis; conditions: 320 g/ha; for herbicidal activity SETVI: pre-emergence, scored visually after about 3 weeks vs untreated controls
Description: as §1, §2

CYPES = test: Pre-emergence herbicidal action; type: in vivo, Cyperus esculentus; conditions: dosage 320 g/ha, scored visually after about 3 weeks vs untreated controls, 100% = plants have died, 0% = like control plants
Description: as §1, §2

SETVI [8] = test: Post-emergence herbicidal action; type: in vivo, Setaria viridis; conditions: 80 g/ha, rated visually after about 3 weeks vs untreated controls
Protocol: as §3, §4

ABUTH [9] = test: Pre-emergence herbicidal action; type: in vivo, Abutilon theophrasti; conditions: 320 g/ha; for herbicidal activity ABUTH: pre-emergence, scored visually after about 3 weeks vs untreated controls
Description: as §1, §2

MATIN [10] = test: Post-emergence herbicidal action; type: in vivo, Matricaria inodora; conditions: 80 g/ha, rated visually after about 3 weeks vs untreated controls
Protocol: as §3, §4

VIOTR [11] = test: Post-emergence herbicidal action; type: in vivo, Viola tricolor; conditions: 80 g/ha, rated visually after about 3 weeks vs untreated controls
Protocol: as §3, §4

MATIN [12] = test: Pre-emergence herbicidal action; type: in vivo, Matricaria inodora; conditions: 320 g/ha; for herbicidal activity MATIN: pre-emergence, scored visually after about 3 weeks vs untreated controls
Description: as §1, §2

PHBPU = test: Post-emergence herbicidal action; type: in vivo, Ipomoea purpurea; conditions: 80 g/ha, rated visually after about 3 weeks vs untreated controls
Protocol: as §3, §4

AMARE [13] = test: Pre-emergence herbicidal action; type: in vivo, Amaranthus retroflexus; conditions: 320 g/ha, scored visually after about 3 weeks vs untreated controls
Description: as §1, §2

STEME [14] = test: Pre-emergence herbicidal action; type: in vivo, Stellaria media; conditions: 320 g/ha, scored visually after about 3 weeks vs untreated controls
Description: as §1, §2

VERPE [15] = test: Pre-emergence herbicidal action; type: in vivo, Veronica persica; conditions: 320 g/ha, scored visually after about 3 weeks vs untreated controls
Description: as §1, §2

VERPE [16] = test: Post-emergence herbicidal action; type: in vivo, Veronica persica; conditions: 80 g/ha, rated visually after about 3 weeks vs untreated controls
Protocol: as §3, §4

ALOMY [17] = test: Post-emergence herbicidal action; type: in vivo, Alopecurus myosuroides; conditions: post-emergence comparative experiment, 80 g/ha
Protocol: as §3, §4

numerous harmful plants [18] = test: Pre-emergence comparative experiment, herbicidal activity; type: in vivo
Description: as §2, with “control plants. In a comparative experiment, by way of example, the herbicidal activity of compound No. 2-53 according to the invention was compared to that of compound No. A-117 known from WO 2013/076315 A2.” for “control plants.”

AVEFA [19] = test: Post-emergence herbicidal action; type: in vivo, Avena fatua; conditions: post-emergence comparative experiment, 80 g/ha
Protocol: as §3, §4

AVEFA [20] = test: Pre-emergence herbicidal action; type: in vivo, Avena fatua; conditions: pre-emergence comparative experiment, 320 g/ha
Description: as §1, §2

LOLMU = test: Post-emergence herbicidal action; type: in vivo, Lolium multiflorum; conditions: post-emergence comparative experiment, 80 g/ha
Protocol: as §3, §4

ALOMY [21] = test: Pre-emergence herbicidal action; type: in vivo, Alopecurus myosuroides; conditions: pre-emergence comparative experiment, 320 g/ha
Description: as §1, §2

numerous harmful plants [22] = test: Post-emergence comparative experiment, herbicidal activity; type: in vivo
Protocol: as §4, with “control plants. In a comparative experiment, by way of example, the herbicidal activity of compound No. 2-53 according to the invention was compared to that of compound No. A-117 known from WO 2013/076315 A2.” for “control plants.”

POLCO = test: Post-emergence herbicidal action; type: in vivo, Polygonum convolvulus; conditions: post-emergence comparative experiment, 80 g/ha
Protocol: as §3, §4

[23] = pre-emergence comparative experiment

SMILES	herbicidal activity ECHCG (ECHCG [1])	herbicidal activity STEME (STEME [2])	herbicidal activity ECHCG (ECHCG [3])	herbicidal activity VIOTR (VIOTR [4])	herbicidal activity ABUTH (ABUTH [5])	herbicidal activity AMARE (AMARE [6])	herbicidal activity SETVI (SETVI [7])	herbicidal activity CYPES (CYPES)	herbicidal activity SETVI (SETVI [8])	herbicidal activity ABUTH (ABUTH [9])	herbicidal activity MATIN (MATIN [10])	herbicidal activity VIOTR (VIOTR [11])	herbicidal activity MATIN (MATIN [12])	herbicidal activity PHBPU (PHBPU)	herbicidal activity AMARE (AMARE [13])	herbicidal activity STEME (STEME [14])	herbicidal activity VERPE (VERPE [15])	herbicidal activity VERPE (VERPE [16])	other results
CC1Oc2c(C(=O)Nc3nnnn3C)ccc(C(F)(F)F)c2S1(=O)=O (centres unmarked) [Example 2-106]	90%	100%	100%	100%	90%	100%	90%	90%	100%	100%	90%	100%	100%	80%	100%	90%			
CCn1nnnc1NC(=O)c1ccc(C(F)(F)F)c2c1OCS2(=O)=O [Example 3-82]	100%	100%	80%	100%		100%		90%		90%	100%	100%	100%	90%	100%	100%	100%	100%	
Cn1nnnc1NC(=O)c1ccc(C(F)(F)F)c2c1OCS2(=O)=O [Example 2-83]	100%	100%	90%	100%	90%	100%	100%	100%	90%	100%	100%	100%	90%	90%	100%	100%	100%	90%	
CCn1nnnc1NC(=O)c1ccc(C(F)(F)F)c2c1OC[S+]2[O-] (centres unmarked) [Example 3-67]	100%	100%	100%	100%	80%	100%	80%	80%		90%	90%	100%	90%	100%	100%	100%	100%	100%	
Cn1nnnc1NC(=O)c1ccc(C(F)(F)F)c2c1OCS2 [Example 2-53, 4-(trifluoromethyl)-1,3-benzoxathiolane-N-(1-methyltetrazol-5-yl)-7-carboxamide]																			Herbicidal action against ALOMY (ALOMY [17]): 80%; herbicidal activity compared to that of compound No. A-117 (numerous harmful plants [18]): superiority; Herbicidal action against ABUTH (ABUTH [5]; post-emergence comparative experiment): 80%; Herbicidal action against SETVI (SETVI [7]; [23]): 80%; Herbicidal action against AVEFA (AVEFA [19]): 100%; Herbicidal action against AVEFA (AVEFA [20]): 60%; Herbicidal action against LOLMU (LOLMU): 70%; Herbicidal action against ABUTH (ABUTH [9]; [23]): 90%; Herbicidal action against ALOMY (ALOMY [21]): 30%; Herbicidal action against MATIN (MATIN [12]; [23]): 90%; herbicidal activity compared to that of compound No. A-117 (numerous harmful plants [22]): superiority; Herbicidal action against POLCO (POLCO): 80%
Cn1nnnc1NC(=O)c1ccc(C(F)(F)F)c2c1OC[S+]2[O-] (centres unmarked) [Example 2-68, 4-(trifluoromethyl)-1,3-benzoxathiolane-N-(1-methyltetrazol-5-yl)-7-carboxamide 3-oxide]	90%	100%	100%	100%		100%	100%	90%	90%	90%	90%	100%	90%	90%	100%	90%	100%	100%	
